# Experimental data taken from patent publication US12545677B2, “Compounds useful as factor XIa inhibitors” (JANSSEN PHARMACEUTICA NV, priority 2020, dated 2026).
# Legend:
# [1] = test system: human hepatocytes; experiment: In vitro metabolism in human cryopreserved hepatocytes; assay type: in vitro ADME
# Protocol: In Vitro Metabolism of in Human Cryopreserved Hepatocytes
# The human hepatocytes used for in vitro metabolism of the compound of formula (I-A) were purchased from Bioreclamation IVT (Westbury, NY); cryopreserved human hepatocytes (lot number: UYG).
# Cryopreserved hepatocytes were rapidly thawed […] vials were placed in a 37° C. water bath for approximately 90 sec, then immediately added to pre-warmed hepatocyte thawing media. The cells were resuspended within the media and then centrifuged at 700×g for 7 minutes at room temperature.
# The supernatant was discarded, and the cells were resuspended in 2 mL of Krebs-Henseleit buffer containing 12.5 mM HEPES pH 7.4 (KHB). Cell viability and yield were determined by Trypan Blue exclusion. The hepatocytes were then diluted in KHB to a cell concentration of 2×10^6 cells/mL (500 μL/well in 10 mL glass tubes). The tubes were placed on a rotary shaker in a humidifier incubator supplied with 5% CO2 and allowed 15 minutes acclimation at 37° C. prior to use. The compound of formula (I-A) or positive control, diclofenac (10 μM), in KHB was then added to the hepatocytes to achieve a final concentration of 10 μM and cell concentration of 1×10^6 cells/mL (1000 μL final incubation volume). Cells were incubated for zero or 3 hours. At the end of the incubation period, the cells were quenched with 6-volumes of ice-cold acetonitrile containing 0.02% formic acid, vortexed and sonicated (5 min). Precipitated proteins were pelleted by centrifugation (3000 rpm, 10 minutes, 4° C.) and the supernatant was transferred to borosilicate tubes and evaporated to dryness under a gentle stream of nitrogen.
# The resulting residue after evaporation was reconstituted in 250 μL of water:acetonitrile (9:1 v/v) containing 0.01% formic acid with sonication and vortexing to aid solubilization of drug-derived materials prior to filtration using 0.45μ nylon filter at 10,000×g at room temperature for 10 minutes. The filtrate was transferred to a 96-well plate for liquid chromatography/ultraviolet/mass spectrometry (LC-UV/MS) analysis.
# LC/UV/MS (Liquid Chromatography/Ultraviolet/Mass Spectrometry)
# LTQ/Orbitrap (Thermo Scientific, Inc., Bremen, Germany) was carried out by data-dependent accurate mass measurements at resolving powers of 15,000 for full scan MS and 7,500 for MS^2 (also known as MS/MS or tandem mass spec) under single ion locked mass mode.
# Quantification of the unchanged drug and its metabolites was carried out by integration of the individual chromatographically separated UV peaks and provided the percentage of total peak area.
# [2] = test system: HepG2 cells; experiment: Cell viability, Cell Titer Fluor Assay, parallel to Seahorse assay; assay type: cell-based; conditions: Homo sapiens, 1 h, one-hour incubation, read-out: IC50, cellular viability
# Protocol: The purpose of this assay was to investigate the effect of the compound of formula (I-A) on mitochondrial respiration in HepG2 cells using the Agilent Seahorse XFe96 analyzer. Cell viability was also determined in HepG2 cells in parallel to the Seahorse assay.
# Cell viability measurements: HepG2 cells were seeded onto black-walled 96 well plates at a density of 40,000 cells/well in EMEM containing 10% HI FBS and 1× Pen/Strep and allowed to attach overnight. The next day, test compounds were prepared and diluted in EMEM. Following a one-hour incubation with the test article(s), cell viability was assessed using the Cell Titer Fluor Assay (Promega, Cat no. G6081) according to the manufacturer's protocol. The viability assay monitors activity of […], a ubiquitous protease found in live cells.
# Data Analyses: Mitochondrial SRC (spare respiratory capacity) was calculated by subtracting the rate of the basal respiration from the rate of the maximal respiration. SRC values were automatically generated by the Report Generator (Agilent Technologies-version 4.0). All experiments were run in triplicate and the mean and standard deviations were calculated for each test concentration. All data were normalized to vehicle controls.
# IC50 values were determined by nonlinear regression and fitting of the dose response curves to a […] equation with variable slope (Hill coefficient): […]
"identified as metabolite of the compound of formula (I-A) ([1]; human hepatocytes, carboxylic acid metabolite)",Structure (SMILES),"turnover in human hepatocytes ([1]; 10 μM, 1×10^6 cells/mL, 3 hours)",major metabolic softspot ([1]; human hepatocytes),"metabolites generated from the incubation ([1]; human hepatocytes, 10 μM, 3 hours)",IC50 [2]
,"O=C1C=C(c2c(-n3cnnn3)ccc(Cl)c2F)C[C@H]2CC[C@@H](c3ncc(-c4ccnc(CO)c4F)[nH]3)N12 [Compound of formula (I-A), (3S,8aR)-7-(3-Chloro-2-fluoro-6-(1H-tetrazol-1-yl)phenyl)-3-(5-(3-fluoro-2-(hydroxymethyl)pyridin-4-yl)-1H-imidazol-2-yl)-2,3,8,8a-tetrahydroindolizin-5(1H)-one]",low turnover,(3-fluoropyridin-2-yl) methanol moiety,three oxidative and two glucuronide metabolites,> 100 µM
a metabolite in human hepatocytes,"O=C(O)c1nccc(-c2cnc([C@@H]3CC[C@@H]4CC(c5c(-n6cnnn6)ccc(Cl)c5F)=CC(=O)N43)[nH]2)c1F [Compound of formula (II-A), 4-(2-((3S,8aR)-7-(3-chloro-2-fluoro-6-(1H-tetrazol-1-yl)phenyl)-5-oxo-1,2,3,5,8,8a-hexahydroindolizin-3-yl)-1H-imidazol-5-yl)-3-fluoropicolinic acid]",,,,
